Data as given in article PMC9501899 (Journal of the American Chemical Society, 2022).
In brackets after ≈: the same amount, converted by molar mass. Like-named read-outs stand apart in the source and are kept apart here.

Tests used:
LRRK2 = LRRK2 degradation in multiple cell lines (summary); type: cell-based
From the text: Leucine-rich repeat kinase 2 (LRRK2) is one of the most promising targets for Parkinson’s disease.

[1] = Mouse liver microsome stability; type: in vitro ADME; conditions: liver microsomes
Description: Testing compound (1.5 μL) or reference compound (500 μM in 5% DMSO and 95% acetonitrile) was mixed with 18.75 μL of 20 mg/mL liver microsome (Corning) and 479.75 μL of potassium phosphate buffer (0.1 M potassium phosphate buffer, 1 mM EDTA, pH 7.4). The reaction was started by mixing 30 μL of the above mixture (prewarmed to 37 °C) with 15 μL of 6 mM NADPH stock solution (prewarmed to 37 °C). After incubating for 5, 15, 30, or 45 min, 135 μL of acetonitrile containing internal standard was added to stop the reaction. For 0 min, the compound and microsome mixture were mixed with acetonitrile first before adding NADPH. After quenching, the reaction mixture was centrifuged, and the supernatant was taken and diluted for LC-MS analysis.

[2] = Solubility in phosphate buffer and FeSSIF; type: physicochemical
Description: Eight microliters of reference or test compound stock solution (10 mM in DMSO) was added to 792 μL of 100 mM phosphate buffer (pH 7.4) or FeSSIF (pH 5.8). The resulting mixture was shaken for 1 h (1000 rpm) at room temperature and then centrifuged for 10 min (12 000 rpm) to remove the undissolved particles. The supernatant was collected and diluted 10 times and 100 times separately with 100 mM phosphate buffer or FeSSIF. Five microliters of the supernatant samples (no diluted, 10 times diluted, 100 times diluted) were mixed with 95 μL of acetonitrile (containing internal standard) separately before injecting into LC-MS/MS for analysis.

[3] = Pharmacokinetic (PK) study in mice; type: in vivo, C57BL/6 male mice; conditions: for bioavailability: C57BL/6, plasma, mouse
Description: Data are mean (±standard deviation (SD)) from three mice at each time point. […]
PK profiling was outsourced and undertaken by Shanghai ChemPartner Co., Ltd. All animal experiments performed were conducted in compliance with the Institutional Animal Care and Use Committee (IACUC) and the Office of Laboratory Animal Welfare (OLAW) guidelines. Six to eight week old C57BL/6 male mice purchased from Jihui Laboratory Animal Co., Ltd. were used in the study. […] The animals were restrained manually at the designated time points (0.083, 0.25, 0.5, 1, 2, 4, and 8 h); approximately, 110 μL of blood sample was collected via facial vein into K2EDTA tubes. Three mice per time point were used, resulting in a total of 21 mice for each administration route. The blood sample was put on ice and centrifuged at 2000g for 5 min to obtain the plasma sample within 15 min. The plasma, brain, and CSF samples were stored at approximately −70 °C until analysis. A 30 μL aliquot of plasma was added with 200 μL of internal standard (Glipozode, 40 ng/mL) in MeCN with 5% Citri. The mixture was then vortexed for 1 min and then centrifuged for 10 min at 5800 rpm. The supernatant (100 μL) was transferred to a new plate. The solution (1 μL) was injected into LC-MS/MS. LC-MS/MS instrument used: SCIEX LC-MS/MS-49 (Triple Quad 6500+). Data were analyzed by WinNonLin and Microsoft Excel.

[4] = Mouse hepatocyte stability; type: in vitro ADME; conditions: mouse hepatocytes
Description: Fifty microliters of prewarmed hepatocytes (2 × 10^6 cells/mL) in suspension media (Krebs–Henseleit buffer (Sigma-Aldrich) containing 5.6 g/L HEPES) was mixed with 50 μL of prewarmed compound dosing solution (2 μM in Krebs–Henseleit buffer with 1% DMSO). After incubating at 37 °C for 15, 30, 60, or 120 min, 100 μL of acetonitrile containing internal standard was added to quench the reaction. For 0 min incubation, acetonitrile was mixed with hepatocytes first before adding the compound solution. After quenching, the mixture was shaken at a vibrator for 10 min (600 rpm/min) and then sonicated for 2 min before centrifugation (5594g for 15 min). The supernatant was taken and diluted for LC-MS analysis.

Caco-2 cell permeability = type: in vitro ADME; conditions: human
Description: Caco-2 cells with transepithelial electrical resistance (TEER) (TEER = (resistance sample – resistance blank) × effective membrane area) = 450 ± 19 Ω cm^2were used for the experiment. Compounds were dissolved in the appropriate buffer (10 mM DMSO stock solutions were diluted with HBSS buffer to a final concentration of 10 μM testing compound and 0.4% DMSO, Lucifer Yellow was introduced in the apical side buffer to test the intactness of the monocell layer) and was applied to the apical or basolateral donor side for measuring A–B or B–A permeability (two replicates), respectively. The apical and basolateral plates were prewarmed to 37 °C before placing the apical plate onto the basolateral plate. After incubating at 37 °C for 90 min, the apical plate and basolateral plate were separated, and the donor or receiver samples were analyzed with UPLC-MS/MS.

[5] = male, C57BL/6, IP 30 mg/kg, mouse plasma
[6] = male, C57BL/6, IV 5 mg/kg, mouse plasma
[7] = male, C57BL/6, PO 30 mg/kg, mouse plasma

CNc1nc(Nc2ccc(C(=O)N3CCN(C[C@H]4CC[C@H](CSC(C)(C)[C@H](NC(=O)C5(F)CC5)C(=O)N5C[C@H](O)CC5C(=O)NCc5ccc(-c6scnc6C)cc5)CC4)CC3)cc2OC)ncc1Cl (stereo partly drawn) [XL01126, (2S,4R)-1-((R)-3-((((1R,4R)-4-((4-(4-((5-Chloro-4-(methylamino)pyrimidin-2-yl)amino)-3-methoxybenzoyl)piperazin-1-yl)methyl)cyclohexyl)methyl)thio)-2-(1-fluorocyclopropane-1-carboxamido)-3-methylbutanoyl)-4-hydroxy-N-(4-(4-methylthiazol-5-yl)benzyl)pyrrolidine-2-carboxamide]
DC50 (LRRK2): 14 to 72 nM
Dmax values (LRRK2): 82 to 90%
CLint scaled at 1 µM ([1]; pH 7.4): 1490 mL/min/kg
half-life at 1 µM ([1]; pH 7.4, read-out: T1/2 in mouse liver microsome): 3.65 min
solubility at 1 h ([2]; 100 mM phosphate buffer, pH 7.4, read-out: solubilities in PBS (pH 7.4)): 0.55 µM (≈ 0.561 µg/mL)
solubility at 1 h ([2]; FeSSIF, pH 5.8, read-out: solubility in FeSSIF (pH 5.8)): 26.1 µM (≈ 26.6 µg/mL)
Kp ([3]; male, C57BL/6, mouse, brain, other: IV, mice, single dose IV, IP or PO, read-out: brain-to-plasma ratio): < 0.035
bioavailability ([3]; male, IP 30 mg/kg, read-out: F): 29.2%
bioavailability ([3]; male, PO 30 mg/kg, read-out: F, oral bioavailability): 15%
AUC(0-inf) [3, 5]: 64100 ng·h/mL
AUC(0-t) [3, 5]: 41400 ng·h/mL
Cmax [3, 5]: 7700 ng/mL
Tmax [3, 5]: 0.25 h
half-life [3, 5]: 5.2 h
AUC(0-inf) [3, 6]: 24000 ng·h/mL
AUC(0-t) [3, 6]: 23700 ng·h/mL
MRT [3, 6]: 2.45 h
clearance [3, 6]: 3.47 mL/min/kg
half-life [3, 6]: 1.52 h
Vd ([3]; male, C57BL/6, IV 5 mg/kg, mouse plasma, read-out: Vss): 0.511 L/kg
AUC(0-inf) [3, 7]: 109000 ng·h/mL
AUC(0-t) [3, 7]: 21300 ng·h/mL
Cmax [3, 7]: 3620 ng/mL
Tmax [3, 7]: 2 h
half-life [3, 7]: 21.9 h
presence in brain tissues and CSF (in words) ([3]; mice, single dose IV, IP or PO): detected in brain tissues and CSF
CLint scaled at 1 µM [4]: 26 mL/min/kg
half-life at 1 µM ([4]; read-out: T1/2 in mouse hepatocytes): 5.24 h
Papp A→B at 90 min, 10 µM (Caco-2 cell permeability; A–B): < 0.74 ×10⁻⁶ cm/s
Papp B→A at 90 min, 10 µM (Caco-2 cell permeability; B–A): < 1.43 ×10⁻⁶ cm/s
